Several values for one entry are separate records, joined by “and”; a condition that tells them apart may be missing. Equal values may be shown once. Entries after “also recorded” stand apart in the source; their conditions may differ.

Series [1] in a line: Concentration of compound 27 in tissues (LC/MS/MS) of B16F10 xenografted mice. The format is in vivo. How it is done:
(§1) • Observe and assess the effect of oral administration of 27 on animal wellbeing. • Quantify levels of 27 in tissues (plasma, tumor, liver, spleen and brain) to assess the compound bioaccumulation and distribution.
(§2) B16F10 cells (25×10^5 cells/mouse) were injected subcutaneously into the right flank of female BALB/c mice aged 7-8 weeks. Mice (n=10) were divided into 2 groups and given daily oral suspension of 27 (treated group), or vehicle (control group) for 15 days. The treated group was orally given a suspension of 27 at 900 mg/kg. The control group was given the vehicle suspension (SEDDS). Measurements performed on days 0, 9 and 15 only. Tissues (plasma, tumor, liver, spleen and brain) were harvested within 3 hours of final treatment. Biopsies of tumor tissues for histopathology were obtained subsequently.
Concentrations of 27 in different tissues were determined using LC/MS/MS spectrometry.

For another series, the system named is BALB/c mice. Nature of the series: Effect of oral administration on animal wellbeing in B16F10 xenografted mice. Conditions: 900 mg/kg oral daily for 15 days. The class given is in vivo. How it is done: as §1, §2
The next series deals with Rhabomyosarcoma SJCRH30. Briefly: CellTiter Glo cell viability assay. The class given is cell-based, human. The method in brief: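 Cells seeded at 1.7*10^3/well in quadruplicate; compounds at 18 two-fold dilutions from 5 μM (0.000038146-5 μM), or at 1, 2, 5, 10 and 20 μM. CellTiter Glo luminescence read on days 1, 3 and 5 after treatment. IC50 by nonlinear regression of luminescence versus log dose.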

Setting [2] is: individual treated mice, 900 mg/kg oral daily for 15 days in SEDDS, harvested within 3 hours of final treatment, LC/MS/MS, 900 mg/kg.

On to `COc1cc(/C=C/c2cc(O)cc(OC)c2CC=C(C)C)ccc1NC=O` [Compound 27, (E)-N-(4-(5-hydroxy-3-methoxy-2-(3-methylbut-2-en-1-yl)styryl)-2-methoxyphenyl)formamide], for which, in series [1] (900 mg/kg oral daily for 15 days, tissues harvested within 3 hours of final treatment), the “Tissue distribution, in words” value is recorded as “Low plasma level; also recorded: high tendency to accumulate in the brain”. Besides, in series [1] (setting [2]), the “Concentration of compound 27 in tissues: Liver” value was 12.6 μg/mg and 10.2 μg/mg and 1.0 μg/mg and 0.0 μg/mg (2×); the “Concentration of compound 27 in tissues: Plasma” value is 0.0 ng/mL (3×) and 8.4 ng/mL and 0.4 ng/mL; the “Concentration of compound 27 in tissues: Spleen” value was 2 μg/mg and 0 μg/mg (4×); the “Concentration of compound 27 in tissues: Tumor” value was 0 μg/mg (3×) and 11.6 μg/mg. Besides, the “Signs of toxic effect” value in the series on BALB/c mice is “no signs of toxic effect; also recorded: low toxicity when given orally”.
By IC50 is commonly meant the concentration that inhibits the measured activity by half. Read a low IC50 as higher potency. In the series with Rhabomyosarcoma SJCRH30 (Homo sapiens, 72 h, 3 Days of treatment, 18 2-fold dilutions 5-0.00003 μM), `CCOc1cc(O)cc(/C=C/c2ccc(O)c(OC)c2)c1CC=C(C)C` [Compound 8, (E)-3-Ethoxy-5-(4-hydroxy-3-methoxystyryl)-4-(3-methylbut-2-en-1-yl)phenol] returned an IC50 of 43.4 nM. Also, the “Fold IC50” value in the series on Rhabomyosarcoma SJCRH30 (IC50 of 1 [KYN-001] vs 8 [KYN-119], 3 Days) is listed as 1.9.
